Experimental data: US20250136578A1 (Kolm Therapeutics Inc., priority 2023, published 2025)

Experiments:
VCaP cells = experiment: VCaP growth inhibition assay (CTG); type: cell-based; details: Homo sapiens, 216 h, 30 pM R1881, 9 days
In short: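 VCaP cells in phenol red-free DMEM with 5% charcoal-stripped serum were stimulated with 30 pM R1881 (final) and treated with compound from 100 nM to 10 fM final (1:5 dilutions) for 9 days at 37 °C. Viability was read by CellTiter-Glo luminescence, and IC50 came from 4-parameter logistic fits.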

AR / CBP ternary complex = AR / CBP ternary complex (Homo sapiens, UniProt P10275+Q92793); experiment: Ternary complex formation assay (sandwich ELISA, AR capture, CBP antibody detection) in VCaP cell lysates; type: cell-based; details: treated 1.5 hours, rabbit CBP or p300 antibody detection, average, read-out: Average Ternary Complex
In short: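 VCaP cells in 5% charcoal-stripped FBS were cultured ≥3 days and then given bifunctional compound for 1.5 h. Lysates went onto AR-antibody-coated plates. Bound CBP (or p300) was detected with a rabbit antibody plus HRP anti-rabbit, using QuantaRed chemifluorescence (ex 570/em 585) read immediately, at 5 min and at 15 min.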

Sequence of AR / CBP ternary complex (P10275 whole entry): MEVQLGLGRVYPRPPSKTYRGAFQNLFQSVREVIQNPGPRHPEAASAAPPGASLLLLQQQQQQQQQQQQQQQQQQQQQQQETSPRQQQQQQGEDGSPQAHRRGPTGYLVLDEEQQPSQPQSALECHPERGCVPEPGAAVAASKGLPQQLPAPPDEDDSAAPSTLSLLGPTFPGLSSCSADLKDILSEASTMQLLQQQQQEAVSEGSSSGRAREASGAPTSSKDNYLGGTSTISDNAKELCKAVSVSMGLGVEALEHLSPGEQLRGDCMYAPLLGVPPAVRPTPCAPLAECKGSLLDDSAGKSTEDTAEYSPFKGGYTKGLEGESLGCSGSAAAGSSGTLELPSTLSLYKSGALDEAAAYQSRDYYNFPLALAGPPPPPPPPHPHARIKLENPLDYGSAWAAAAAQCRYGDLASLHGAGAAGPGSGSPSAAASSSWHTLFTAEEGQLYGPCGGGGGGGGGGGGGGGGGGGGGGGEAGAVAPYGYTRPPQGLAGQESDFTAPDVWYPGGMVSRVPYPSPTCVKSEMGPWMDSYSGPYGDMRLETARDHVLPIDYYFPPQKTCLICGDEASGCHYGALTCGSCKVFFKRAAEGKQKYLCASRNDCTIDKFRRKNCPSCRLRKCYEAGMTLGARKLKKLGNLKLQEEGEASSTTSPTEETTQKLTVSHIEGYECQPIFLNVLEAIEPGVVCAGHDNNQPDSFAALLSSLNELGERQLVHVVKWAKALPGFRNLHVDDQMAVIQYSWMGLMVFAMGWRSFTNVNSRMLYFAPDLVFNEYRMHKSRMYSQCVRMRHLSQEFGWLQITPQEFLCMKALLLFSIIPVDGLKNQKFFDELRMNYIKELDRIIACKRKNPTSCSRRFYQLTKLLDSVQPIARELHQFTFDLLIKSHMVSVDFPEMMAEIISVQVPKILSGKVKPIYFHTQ
Sequence of AR / CBP ternary complex (Q92793 2-2442): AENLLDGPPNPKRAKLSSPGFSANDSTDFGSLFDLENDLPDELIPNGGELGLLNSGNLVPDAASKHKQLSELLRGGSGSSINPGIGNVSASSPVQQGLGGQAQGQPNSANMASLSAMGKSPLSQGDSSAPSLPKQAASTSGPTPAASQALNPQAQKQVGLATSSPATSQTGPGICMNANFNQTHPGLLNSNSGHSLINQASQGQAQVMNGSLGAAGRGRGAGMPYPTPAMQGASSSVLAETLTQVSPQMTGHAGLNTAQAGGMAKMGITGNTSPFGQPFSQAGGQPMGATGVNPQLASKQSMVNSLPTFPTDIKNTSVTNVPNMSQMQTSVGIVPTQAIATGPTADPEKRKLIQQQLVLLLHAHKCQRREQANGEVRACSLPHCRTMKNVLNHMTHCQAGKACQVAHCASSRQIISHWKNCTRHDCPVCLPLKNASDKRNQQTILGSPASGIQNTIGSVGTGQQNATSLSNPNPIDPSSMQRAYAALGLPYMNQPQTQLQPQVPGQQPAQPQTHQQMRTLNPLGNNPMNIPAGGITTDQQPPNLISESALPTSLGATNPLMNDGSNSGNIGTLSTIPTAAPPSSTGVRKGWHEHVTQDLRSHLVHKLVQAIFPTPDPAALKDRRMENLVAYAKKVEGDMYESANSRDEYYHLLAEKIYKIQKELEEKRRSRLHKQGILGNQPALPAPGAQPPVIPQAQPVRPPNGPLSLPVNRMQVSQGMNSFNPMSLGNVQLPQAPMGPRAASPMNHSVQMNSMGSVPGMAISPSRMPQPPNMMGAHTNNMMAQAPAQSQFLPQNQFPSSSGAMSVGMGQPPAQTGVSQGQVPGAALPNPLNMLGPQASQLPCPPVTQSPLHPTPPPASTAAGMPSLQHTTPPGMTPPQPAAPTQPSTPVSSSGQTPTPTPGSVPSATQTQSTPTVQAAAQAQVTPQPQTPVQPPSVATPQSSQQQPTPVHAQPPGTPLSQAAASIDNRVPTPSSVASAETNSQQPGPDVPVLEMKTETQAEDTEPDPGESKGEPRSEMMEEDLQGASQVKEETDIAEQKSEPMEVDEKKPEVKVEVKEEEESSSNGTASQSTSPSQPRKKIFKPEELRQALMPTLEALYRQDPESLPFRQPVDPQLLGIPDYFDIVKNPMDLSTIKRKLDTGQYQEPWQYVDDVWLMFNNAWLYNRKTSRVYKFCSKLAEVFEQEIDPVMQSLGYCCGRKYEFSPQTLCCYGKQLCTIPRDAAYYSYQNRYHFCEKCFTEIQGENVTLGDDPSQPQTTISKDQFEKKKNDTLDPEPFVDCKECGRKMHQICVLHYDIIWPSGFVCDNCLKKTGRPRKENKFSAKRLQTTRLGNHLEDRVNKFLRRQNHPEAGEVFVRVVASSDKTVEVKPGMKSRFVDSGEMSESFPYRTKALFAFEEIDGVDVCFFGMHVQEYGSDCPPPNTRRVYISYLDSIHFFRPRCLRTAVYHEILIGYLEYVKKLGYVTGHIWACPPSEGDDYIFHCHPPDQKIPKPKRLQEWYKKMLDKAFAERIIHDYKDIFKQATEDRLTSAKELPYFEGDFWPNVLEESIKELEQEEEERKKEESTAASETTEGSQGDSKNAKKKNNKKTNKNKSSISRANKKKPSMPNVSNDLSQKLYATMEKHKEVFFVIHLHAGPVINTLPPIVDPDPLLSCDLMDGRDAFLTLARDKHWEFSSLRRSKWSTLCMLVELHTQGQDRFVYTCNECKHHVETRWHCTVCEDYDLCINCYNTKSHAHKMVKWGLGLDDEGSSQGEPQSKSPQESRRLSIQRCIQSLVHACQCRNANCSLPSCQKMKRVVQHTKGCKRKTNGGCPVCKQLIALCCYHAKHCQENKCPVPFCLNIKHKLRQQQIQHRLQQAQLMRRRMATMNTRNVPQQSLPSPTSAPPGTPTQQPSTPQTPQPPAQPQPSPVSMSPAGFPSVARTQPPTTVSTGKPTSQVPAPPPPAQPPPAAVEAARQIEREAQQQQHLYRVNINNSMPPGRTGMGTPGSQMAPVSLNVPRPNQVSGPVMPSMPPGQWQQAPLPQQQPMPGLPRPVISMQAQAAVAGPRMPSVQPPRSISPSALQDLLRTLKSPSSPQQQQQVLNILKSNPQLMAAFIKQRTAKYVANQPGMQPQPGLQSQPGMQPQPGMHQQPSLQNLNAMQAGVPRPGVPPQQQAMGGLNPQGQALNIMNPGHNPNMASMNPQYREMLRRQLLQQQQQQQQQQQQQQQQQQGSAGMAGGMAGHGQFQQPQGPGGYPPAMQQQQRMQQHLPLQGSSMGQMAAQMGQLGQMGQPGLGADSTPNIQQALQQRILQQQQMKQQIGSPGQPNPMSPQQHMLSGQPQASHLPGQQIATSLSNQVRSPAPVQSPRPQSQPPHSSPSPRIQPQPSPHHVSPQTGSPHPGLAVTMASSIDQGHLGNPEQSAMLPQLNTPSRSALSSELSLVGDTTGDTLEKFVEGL

| IC50 (VCaP cells) [nM] | EC50 (AR / CBP ternary complex) [nM] | SMILES |
| --- | --- | --- |
| 0.1 to 1 | 1 to 10 | CC(=O)N1CCc2c(c(N3CCCc4cc(-c5cnn(C)c5)c(C(F)F)cc43)nn2C2CCN(C(=O)C3CCN(c4ccc(C(=O)N[C@H]5CC[C@H](Oc6ccc(C#N)c(Cl)c6)CC5)cn4)CC3)CC2)C1 [Compound 158, 6-[4-[4-[5-acetyl-3-[7-(difluoromethyl)-6-(1-methylpyrazol-4-yl)-3,4-dihydro-2H-quinolin-1-yl]-6,7-dihydro-4H-pyrazolo[4,3-c]pyridin-1-yl]piperidine-1-carbonyl]-1-piperidyl]-N-[4-(3-chloro-4-cyano-phenoxy)cyclohexyl]pyridine-3-carboxamide] |
| ≤ 0.1 | < 1 | CC(=O)N1CCc2c(c(N3CCCc4cc(-c5cnn(C)c5)c(C(F)F)cc43)nn2C2CCN(C(=O)C3CCN(c4ccc(C(=O)N[C@H]5CC[C@H](Oc6ccc(C#N)c(Cl)c6)CC5)cc4)CC3)CC2)C1 [Compound 159, 4-[4-[4-[5-acetyl-3-[7-(difluoromethyl)-6-(1-methylpyrazol-4-yl)-3,4-dihydro-2H-quinolin-1-yl]-6,7-dihydro-4H-pyrazolo[4,3-c]pyridin-1-yl]piperidine-1-carbonyl]-1-piperidyl]-N-[4-(3-chloro-4-cyano-phenoxy)cyclohexyl]benzamide] |
| ≤ 0.1 | < 1 | COc1cc(O[C@H]2CC[C@H](NC(=O)c3ccc(N4CCC(C(=O)N5CCC(n6nc(N7CCCc8cc(-c9cnn(C)c9)c(C(F)F)cc87)c7c6CCN(C(C)=O)C7)CC5)CC4)cc3)CC2)ccc1C#N [Compound 160, 4-[4-[4-[5-acetyl-3-[7-(difluoromethyl)-6-(1-methylpyrazol-4-yl)-3,4-dihydro-2H-quinolin-1-yl]-6,7-dihydro-4H-pyrazolo[4,3-c]pyridin-1-yl]piperidine-1-carbonyl]-1-piperidyl]-N-[4-(4-cyano-3-methoxy-phenoxy)cyclohexyl]benzamide] |
| 0.1 to 1 | 1 to 10 | CC(=O)N1CCc2c(c(-c3cccc4cc(-c5cnn(C)c5)ncc34)nn2C2CCN(CC3CCN(c4ccc(C(=O)N[C@H]5CC[C@H](Oc6ccc(C#N)c(Cl)c6)CC5)cc4)CC3)CC2)C1 [Compound 162, 4-[4-[[4-[5-acetyl-3-[3-(1-methylpyrazol-4-yl)-8-isoquinolyl]-6,7-dihydro-4H-pyrazolo[4,3-c]pyridin-1-yl]-1-piperidyl]methyl]-1-piperidyl]-N-[4-(3-chloro-4-cyano-phenoxy)cyclohexyl]benzamide] |
| ≤ 0.1 | < 1 | COc1cc(O[C@H]2CC[C@H](NC(=O)c3ccc(N4CCC(CN5CCC(n6nc(-c7cccc8cc(-c9cnn(C)c9)ncc78)c7c6CCN(C(C)=O)C7)CC5)CC4)cc3)CC2)ccc1C#N [Compound 163, 4-[4-[[4-[5-acetyl-3-[3-(1-methylpyrazol-4-yl)-8-isoquinolyl]-6,7-dihydro-4H-pyrazolo[4,3-c]pyridin-1-yl]-1-piperidyl]methyl]-1-piperidyl]-N-[4-(4-cyano-3-methoxy-phenoxy)cyclohexyl]benzamide] |
| 0.1 to 1 | < 1 | CC(=O)N1CCc2c(c(-c3cccc4cc(-c5cnn(C)c5)ncc34)nn2C2CCN(C(=O)C3CCN(c4ccc(C(=O)N[C@H]5CC[C@H](Oc6ccc(C#N)c(Cl)c6)CC5)cc4)CC3)CC2)C1 [Compound 164, 4-[4-[4-[5-acetyl-3-[3-(1-methylpyrazol-4-yl)-8-isoquinolyl]-6,7-dihydro-4H-pyrazolo[4,3-c]pyridin-1-yl]piperidine-1-carbonyl]-1-piperidyl]-N-[4-(3-chloro-4-cyano-phenoxy)cyclohexyl]benzamide] |
| ≤ 0.1 | 10 to 100 | CC(=O)N1CCc2c(c(N3CCCc4cc(-c5ccc(CCC6CCN(c7ccc(C(=O)N[C@H]8CC[C@H](Oc9ccc(C#N)c(Cl)c9)CC8)cn7)CC6)cc5)c(C(F)F)cc43)nn2C2CCOCC2)C1 [Compound 168, 6-[4-[2-[4-[1-(5-acetyl-1-tetrahydropyran-4-yl-6,7-dihydro-4H-pyrazolo[4,3-c]pyridin-3-yl)-7-(difluoromethyl)-3,4-dihydro-2H-quinolin-6-yl]phenyl]ethyl]-1-piperidyl]-N-[4-(3-chloro-4-cyano-phenoxy)cyclohexyl]pyridine-3-carboxamide] |
| ≤ 0.1 | < 1 | CC(=O)N1CCc2c(c(N3CCCc4cc(-c5cnn(C)c5)c(C(F)F)cc43)nn2C2CCN(CC3CC4CC3CN4c3ccc(C(=O)N[C@H]4CC[C@H](Oc5ccc(C#N)c(Cl)c5)CC4)nn3)CC2)C1 (some centres unmarked) [Compound 169, 6-[5-[[4-[5-acetyl-3-[7-(difluoromethyl)-6-(1-methylpyrazol-4-yl)-3,4-dihydro-2H-quinolin-1-yl]-6,7-dihydro-4H-pyrazolo[4,3-c]pyridin-1-yl]-1-piperidyl]methyl]-2-azabicyclo [2.2.1]heptan-2-yl]-N-[4-(3-chloro-4-cyano-phenoxy)cyclohexyl]pyridazine-3-carboxamide] |
| 0.1 to 1 | < 1 | CC(=O)N1CCc2c(c(N3CCCc4cc(-c5cnn(C)c5)c(C(F)F)cc43)nn2C2CCN(C3CC4(CCN(c5ccc(C(=O)N[C@H]6CC[C@H](Oc7ccc(C#N)c(Cl)c7)CC6)nn5)CC4)C3)CC2)C1 [Compound 176, 6-[2-[4-[5-acetyl-3-[7-(difluoromethyl)-6-(1-methylpyrazol-4-yl)-3,4-dihydro-2H-quinolin-1-yl]-6,7-dihydro-4H-pyrazolo[4,3-c]pyridin-1-yl]-1-piperidyl]-7-azaspiro[3.5]nonan-7-yl]-N-[4-(3-chloro-4-cyano-phenoxy)cyclohexyl]pyridazine-3-carboxamide] |

Further lines, the molecule ahead of its results:

| SMILES | IC50 (VCaP cells) [nM] | EC50 (AR / CBP ternary complex) [nM] |
| --- | --- | --- |
| CC(=O)N1CCc2c(c(N3CCCc4cc(-c5ccc(CCC6CCN(c7ccc(C(=O)N[C@H]8CC[C@H](Oc9ccc(C#N)c(Cl)c9)CC8)nn7)CC6)cc5)ncc43)nn2C2CCOCC2)C1 [Compound 156, 6-[4-[2-[4-[1-(5-acetyl-1-tetrahydropyran-4-yl-6,7-dihydro-4H-pyrazolo[4,3-c]pyridin-3-yl)-3,4-dihydro-2H-1,7-naphthyridin-6-yl]phenyl]ethyl]-1-piperidyl]-N-[4-(3-chloro-4-cyano-phenoxy)cyclohexyl]pyridazine-3-carboxamide] | 1 to 100 | 1 to 10 |
| CC(=O)N1CCc2c(c(N3CCCc4cc(-c5ccc(CCN6CCN(c7ccc(C(=O)N[C@H]8CC[C@H](Oc9ccc(C#N)c(Cl)c9)CC8)nn7)CC6)cc5)ncc43)nn2C2CCOCC2)C1 [Compound 157, 6-[4-[2-[4-[1-(5-acetyl-1-tetrahydropyran-4-yl-6,7-dihydro-4H-pyrazolo[4,3-c]pyridin-3-yl)-3,4-dihydro-2H-1,7-naphthyridin-6-yl]phenyl]ethyl]piperazin-1-yl]-N-[4-(3-chloro-4-cyano-phenoxy)cyclohexyl]pyridazine-3-carboxamide] | 0.1 to 1 | < 1 |
| CC(=O)N1CCc2c(c(-c3cccc4cc(-c5cnn(C)c5)ncc34)nn2C2CCN(CC3CCN(c4ccc(C(=O)N[C@H]5CC[C@H](Oc6ccc(C#N)c(Cl)c6)CC5)cn4)CC3)CC2)C1 [Compound 161, 6-[4-[[4-[5-acetyl-3-[3-(1-methylpyrazol-4-yl)-8-isoquinolyl]-6,7-dihydro-4H-pyrazolo[4,3-c]pyridin-1-yl]-1-piperidyl]methyl]-1-piperidyl]-N-[4-(3-chloro-4-cyano-phenoxy)cyclohexyl]pyridine-3-carboxamide] | ≤ 0.1 | < 1 |
| CC(=O)N1CCc2c(c(-c3cccc4cc(-c5ccc(CCC6CCN(c7ccc(C(=O)N[C@H]8CC[C@H](Oc9ccc(C#N)c(Cl)c9)CC8)cn7)CC6)nc5)ncc34)nn2C2CCOCC2)C1 [Compound 165] | 0.1 to 1 | < 1 |
| CC(=O)N1CCc2c(c(-c3cccc4cc(-c5ccc(CCC6CCN(c7ccc(C(=O)N[C@H]8CC[C@H](Oc9ccc(C#N)c(Cl)c9)CC8)cn7)CC6)cc5)ncc34)nn2C2CCOCC2)C1 [Compound 166, 6-[4-[2-[4-[8-(5-acetyl-1-tetrahydropyran-4-yl-6,7-dihydro-4H-pyrazolo[4,3-c]pyridin-3-yl)-3-isoquinolyl]phenyl]ethyl]-1-piperidyl]-N-[4-(3-chloro-4-cyano-phenoxy)cyclohexyl]pyridine-3-carboxamide] | 0.1 to 1 | < 1 |
| CC(=O)N1CCc2c(c(-c3cccc4cc(C5CC5)ncc34)nn2C2CCN(C(=O)C3CCN(c4ccc(C(=O)N[C@H]5CC[C@H](Oc6ccc(C#N)c(Cl)c6)CC5)nn4)CC3)CC2)C1 [Compound 170, 6-[4-[4-[5-acetyl-3-(3-cyclopropyl-8-isoquinolyl)-6,7-dihydro-4H-pyrazolo[4,3-c]pyridin-1-yl]piperidine1-carbonyl]-1-piperidyl]-N-[4-(3-chloro-4-cyano-phenoxy)cyclohexyl]pyridazine-3-carboxamide] | 0.1 to 1 | < 1 |
| CC(=O)N1CCc2c(c(-c3cccc4cc(-c5ccc(N6CC(C7CCN(c8ccc(C(=O)N[C@H]9CC[C@H](Oc%10ccc(C#N)c(Cl)c%10)CC9)nn8)CC7)C6)nc5)ncc34)nn2C2CCOCC2)C1 [Compound 181] | ≤ 0.1 | < 1 |
| CC(=O)N1CCc2c(c(-c3cccc4cc(-c5cnn(C6CCC7(CC6)CCN(c6ccc(C(=O)N[C@H]8CC[C@H](Oc9ccc(C#N)c(Cl)c9)CC8)nn6)CC7)c5)ncc34)nn2C2CCOCC2)C1 [Compound 182] | ≤ 0.1 | < 1 |
| CC(=O)N1CCc2c(c(-c3cccc4cc(-c5cnn(C6CCN(C7CCN(c8ccc(C(=O)N[C@H]9CC[C@H](Oc%10ccc(C#N)c(Cl)c%10)CC9)nn8)CC7)CC6)c5)ncc34)nn2C2CCOCC2)C1 [Compound 183] | 0.1 to 1 | < 1 |
| CC(=O)N1CCc2c(c(-c3cccc4cc(-c5cnn([C@H]6CC[C@H](C7CCN(c8ccc(C(=O)N[C@H]9CC[C@H](Oc%10ccc(C#N)c(Cl)c%10)CC9)nn8)CC7)CC6)c5)ncc34)nn2C2CCOCC2)C1 [Compound 184] | 1 to 100 | 1 to 10 |
